According to ChEMBL document CHEMBL3603774, “Novel 5-functionalized-pyrazoles: Synthesis, characterization and pharmacological screening” (Bioorg Med Chem Lett, 2015):
Values after ≈ are worked out from the molar mass of the structure shown.

Tested on: Bacillus cereus
Test: Antibacterial activity against Bacillus cereus MTCC 8372 at 50 ug/ml after 24 hrs by disc diffusion method
Assay type: functional
Settings: MTCC 8372, 24 h, read-out: IZ

Structure (SMILES) | zone of inhibition at 50 µg/mL [mm]
CCOC(=O)c1c(-c2ccccc2)nn(-c2ccccc2)c1Cn1c(Cl)nc2ccccc21 | 6

Tested on: Bacillus cereus
Test: Antibacterial activity against Bacillus cereus MTCC 8372 at 100 ug/ml after 24 hrs by disc diffusion method
Assay type: functional
Settings: MTCC 8372, 24 h, read-out: IZ

Structure (SMILES) | zone of inhibition at 100 µg/mL [mm]
CCOC(=O)c1c(-c2ccccc2)nn(-c2ccccc2)c1Cn1c(Cl)nc2ccccc21 | 14

Tested on: Staphylococcus aureus
Test: Antibacterial activity against Staphylococcus aureus MTCC 96 at 50 ug/ml after 24 hrs by disc diffusion method
Assay type: functional
Settings: MTCC 96, 24 h, read-out: IZ

Structure (SMILES) | zone of inhibition at 50 µg/mL [mm]
CCOC(=O)c1c(-c2ccccc2)nn(-c2ccccc2)c1Cn1c(Cl)nc2ccccc21 | 9

Tested on: Staphylococcus aureus
Test: Antibacterial activity against Staphylococcus aureus MTCC 96 at 100 ug/ml after 24 hrs by disc diffusion method
Assay type: functional
Settings: MTCC 96, 24 h, read-out: IZ

Structure (SMILES) | zone of inhibition at 100 µg/mL [mm]
CCOC(=O)c1c(-c2ccccc2)nn(-c2ccccc2)c1Cn1c(Cl)nc2ccccc21 | 11

Tested on: Escherichia coli
Test: Antibacterial activity against Escherichia coli MTCC 724 at 50 ug/ml after 24 hrs by disc diffusion method
Assay type: functional
Settings: MTCC 724, 24 h, read-out: IZ

Structure (SMILES) | zone of inhibition at 50 µg/mL [mm]
CCOC(=O)c1c(-c2ccccc2)nn(-c2ccccc2)c1Cn1c(Cl)nc2ccccc21 | 9

Tested on: Escherichia coli
Test: Antibacterial activity against Escherichia coli MTCC 724 at 100 ug/ml after 24 hrs by disc diffusion method
Assay type: functional
Settings: MTCC 724, 24 h, read-out: IZ

Structure (SMILES) | zone of inhibition at 100 µg/mL [mm]
CCOC(=O)c1c(-c2ccccc2)nn(-c2ccccc2)c1Cn1c(Cl)nc2ccccc21 | 19

Tested on: Klebsiella pneumoniae
Test: Antibacterial activity against Klebsiella pneumoniae MTCC 3384 at 50 ug/ml after 24 hrs by disc diffusion method
Assay type: functional
Settings: MTCC 3384, 24 h, read-out: IZ

Structure (SMILES) | zone of inhibition at 50 µg/mL [mm]
CCOC(=O)c1c(-c2ccccc2)nn(-c2ccccc2)c1Cn1c(Cl)nc2ccccc21 | 6

Tested on: Klebsiella pneumoniae
Test: Antibacterial activity against Klebsiella pneumoniae MTCC 3384 at 100 ug/ml after 24 hrs by disc diffusion method
Assay type: functional
Settings: MTCC 3384, 24 h, read-out: IZ

Structure (SMILES) | zone of inhibition at 100 µg/mL [mm]
CCOC(=O)c1c(-c2ccccc2)nn(-c2ccccc2)c1Cn1c(Cl)nc2ccccc21 | 12

Tested on: Aspergillus flavus
Test: Antifungal activity against Aspergillus flavus MTCC 873 at 50 ug/ml after 24 hrs by disc diffusion method
Assay type: functional
Settings: MTCC 873, 24 h, read-out: IZ

Structure (SMILES) | zone of inhibition at 50 µg/mL [mm]
CCOC(=O)c1c(-c2ccccc2)nn(-c2ccccc2)c1Cn1c(Cl)nc2ccccc21 | 8

Tested on: Aspergillus flavus
Test: Antifungal activity against Aspergillus flavus MTCC 873 at 100 ug/ml after 24 hrs by disc diffusion method
Assay type: functional
Settings: MTCC 873, 24 h, read-out: IZ

Structure (SMILES) | zone of inhibition at 100 µg/mL [mm]
CCOC(=O)c1c(-c2ccccc2)nn(-c2ccccc2)c1Cn1c(Cl)nc2ccccc21 | 9

Tested on: Aspergillus niger
Test: Antifungal activity against Aspergillus niger MTCC 281 at 50 ug/ml after 24 hrs by disc diffusion method
Assay type: functional
Settings: MTCC 281, 24 h, read-out: IZ

Structure (SMILES) | zone of inhibition at 50 µg/mL [mm]
CCOC(=O)c1c(-c2ccccc2)nn(-c2ccccc2)c1Cn1c(Cl)nc2ccccc21 | 10

Tested on: Bacillus cereus
Test: Antibacterial activity against Bacillus cereus MTCC 8372 after 24 hrs by microdilution method
Assay type: functional
Settings: MTCC 8372, 24 h

MIC [µg/mL] | Structure (SMILES)
35 (≈ 76.6 µM) | CCOC(=O)c1c(-c2ccccc2)nn(-c2ccccc2)c1Cn1c(Cl)nc2ccccc21

Tested on: Bacillus cereus
Test: Antibacterial activity against Bacillus cereus MTCC 8372 assessed as concentration required to completely destroy test microorganisms after 24 hrs
Assay type: functional
Settings: MTCC 8372, 24 h

Structure (SMILES) | MBC [µg/mL]
CCOC(=O)c1c(-c2ccccc2)nn(-c2ccccc2)c1Cn1c(Cl)nc2ccccc21 | 220 (≈ 481 µM)

Tested on: Staphylococcus aureus
Test: Antibacterial activity against Staphylococcus aureus MTCC 96 after 24 hrs by microdilution method
Assay type: functional
Settings: MTCC 96, 24 h

MIC [µg/mL] | Structure (SMILES)
30 (≈ 65.7 µM) | CCOC(=O)c1c(-c2ccccc2)nn(-c2ccccc2)c1Cn1c(Cl)nc2ccccc21

Tested on: Staphylococcus aureus
Test: Antibacterial activity against Staphylococcus aureus MTCC 96 assessed as concentration required to completely destroy test microorganisms after 24 hrs
Assay type: functional
Settings: MTCC 96, 24 h

Structure (SMILES) | MBC [µg/mL]
CCOC(=O)c1c(-c2ccccc2)nn(-c2ccccc2)c1Cn1c(Cl)nc2ccccc21 | 160 (≈ 350 µM)

Tested on: Escherichia coli
Test: Antibacterial activity against Escherichia coli MTCC 724 after 24 hrs by microdilution method
Assay type: functional
Settings: MTCC 724, 24 h

MIC [µg/mL] | Structure (SMILES)
35 (≈ 76.6 µM) | CCOC(=O)c1c(-c2ccccc2)nn(-c2ccccc2)c1Cn1c(Cl)nc2ccccc21

Tested on: Escherichia coli
Test: Antibacterial activity against Escherichia coli MTCC 724 assessed as concentration required to completely destroy test microorganisms after 24 hrs
Assay type: functional
Settings: MTCC 724, 24 h

Structure (SMILES) | MBC [µg/mL]
CCOC(=O)c1c(-c2ccccc2)nn(-c2ccccc2)c1Cn1c(Cl)nc2ccccc21 | 190 (≈ 416 µM)

Tested on: Klebsiella pneumoniae
Test: Antibacterial activity against Klebsiella pneumoniae MTCC 3384 after 24 hrs by microdilution method
Assay type: functional
Settings: MTCC 3384, 24 h

MIC [µg/mL] | Structure (SMILES)
30 (≈ 65.7 µM) | CCOC(=O)c1c(-c2ccccc2)nn(-c2ccccc2)c1Cn1c(Cl)nc2ccccc21

Tested on: Klebsiella pneumoniae
Test: Antibacterial activity against Klebsiella pneumoniae MTCC 3384 assessed as concentration required to completely destroy test microorganisms after 24 hrs
Assay type: functional
Settings: MTCC 3384, 24 h

Structure (SMILES) | MBC [µg/mL]
CCOC(=O)c1c(-c2ccccc2)nn(-c2ccccc2)c1Cn1c(Cl)nc2ccccc21 | 190 (≈ 416 µM)

Tested on: Aspergillus flavus
Test: Antifungal activity against Aspergillus flavus MTCC 873 after 48 hrs by microdilution method
Assay type: functional
Settings: MTCC 873, 48 h

MIC [µg/mL] | Structure (SMILES)
30 (≈ 65.7 µM) | CCOC(=O)c1c(-c2ccccc2)nn(-c2ccccc2)c1Cn1c(Cl)nc2ccccc21

Tested on: Aspergillus flavus
Test: Antifungal activity against Aspergillus flavus MTCC 873 assessed as concentration required to completely destroy test microorganisms after 24 hrs
Assay type: functional
Settings: MTCC 873, 24 h

Structure (SMILES) | MFC [µg/mL]
CCOC(=O)c1c(-c2ccccc2)nn(-c2ccccc2)c1Cn1c(Cl)nc2ccccc21 | 230 (≈ 503 µM)

Tested on: Aspergillus niger
Test: Antifungal activity against Aspergillus niger MTCC 281 after 48 hrs by microdilution method
Assay type: functional
Settings: MTCC 281, 48 h

MIC [µg/mL] | Structure (SMILES)
25 (≈ 54.7 µM) | CCOC(=O)c1c(-c2ccccc2)nn(-c2ccccc2)c1Cn1c(Cl)nc2ccccc21

Tested on: Aspergillus niger
Test: Antifungal activity against Aspergillus niger MTCC 281 assessed as concentration required to completely destroy test microorganisms after 24 hrs
Assay type: functional
Settings: MTCC 281, 24 h

Structure (SMILES) | MFC [µg/mL]
CCOC(=O)c1c(-c2ccccc2)nn(-c2ccccc2)c1Cn1c(Cl)nc2ccccc21 | 215 (≈ 471 µM)

Tested on: Aspergillus niger
Test: Antifungal activity against Aspergillus niger MTCC 281 at 100 ug/ml after 24 hrs by disc diffusion method
Assay type: functional
Settings: MTCC 281, 24 h, read-out: IZ

Structure (SMILES) | zone of inhibition at 100 µg/mL [mm]
CCOC(=O)c1c(-c2ccccc2)nn(-c2ccccc2)c1Cn1c(Cl)nc2ccccc21 | 10

Target: T1, Alpha amylase (Homo sapiens, UniProt P0DUB6)
T1 sequence (P0DUB6 whole entry): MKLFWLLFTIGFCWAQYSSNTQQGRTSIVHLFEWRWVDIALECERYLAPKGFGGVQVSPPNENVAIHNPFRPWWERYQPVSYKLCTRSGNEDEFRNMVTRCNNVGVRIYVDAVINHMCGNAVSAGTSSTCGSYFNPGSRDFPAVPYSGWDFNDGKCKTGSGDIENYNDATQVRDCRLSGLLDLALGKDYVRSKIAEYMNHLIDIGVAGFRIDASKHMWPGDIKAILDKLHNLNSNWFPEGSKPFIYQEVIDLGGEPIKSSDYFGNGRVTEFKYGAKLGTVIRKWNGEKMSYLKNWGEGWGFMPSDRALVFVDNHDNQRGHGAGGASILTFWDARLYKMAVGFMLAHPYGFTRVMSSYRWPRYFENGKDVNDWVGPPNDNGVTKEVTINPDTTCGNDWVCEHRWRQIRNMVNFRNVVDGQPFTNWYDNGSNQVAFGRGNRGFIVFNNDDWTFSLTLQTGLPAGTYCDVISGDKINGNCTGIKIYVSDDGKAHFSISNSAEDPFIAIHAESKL
Test: Inhibition of alpha-amylase (unknown origin) using starch as substrate after 30 mins by spectrophotometer analysis
Settings: not given

IC50 [µg/mL] | Structure (SMILES)
10 (≈ 21.9 µM) | CCOC(=O)c1c(-c2ccccc2)nn(-c2ccccc2)c1Cn1c(Cl)nc2ccccc21

Target: not listed separately
Test: Inhibition of alpha-glucosidase (unknown origin) using p-nitrophenol glycoside as substrate after 30 mins by colorimetric analysis
Set-up: species or system Homo sapiens
Settings: not given

IC50 [µg/mL] | Structure (SMILES)
20 (≈ 43.8 µM) | CCOC(=O)c1c(-c2ccccc2)nn(-c2ccccc2)c1Cn1c(Cl)nc2ccccc21
